Results reported in PubChem BioAssay AID1195 (EPA DSSTox, 2008).
Where “and” joins values, the source holds several entries; their conditions need not be identical. Equal entries are not always repeated.

System: human maximum recommended daily dose, FDA database
Test: DSSTox (FDAMDD) FDA Maximum (Recommended) Daily Dose Database
Conditions: hits give low values
Excerpt: The Food and Drug Administration (FDA) Center for Drug Evaluation and Research, Office of Pharmaceutical Science, Informatics and Computational Safety Analysis Staff's Maximum Recommended Daily Dose (FDAMDD) database contains values for over 1200 pharmaceuticals listed in Martindale: The Extra Pharmacopoeia (1973, 1983, and 1993) and The Physicians' Desk Reference (1995 and 1999). Some classes of chemicals were excluded from the FDAMDD database due to their unsuitability for most QSAR modeling programs. These were inorganic chemicals, high molecular weight polymers (>5000 Daltons), fibers, salts, mixtures of organic chemicals, and small molecules (<100 Daltons). FDAMDD is the non-proprietary portion of the database that was used in the QSAR analysis reported in the Main Citation. DSSTox FDAMDD has fewer substance records than the original MRDD Source database due to consolidation of partial structures (i.e., complexed entities) into a single record and elimination of duplicate entries. DSSTox FDAMDD also differs from the MRDD Source database in presenting complete structural information pertaining to the actual salt or complexed form corresponding to the listed ChemicalName and CASRN. According to the Source authors, there are a number of cases where multiple related forms or derivatives of a drug were listed as separate records but were assumed to fall under the same clinical toxicity assessment and, therefore, assigned the same Dose_MRDD_mg activity value. For the DSSTox FDAMDD, we have labeled these derivatives in the ChemClass_MRDD_grouping field and provide their counts in the ChemicalReplicateCount field to highlight their special nature.
Maximum recommended daily dose (or maximum recommended therapeutic dose) values were determined from pharmaceutical clinical trials that employed an oral route of exposure and daily treatments, usually for 3-12 months. Drugs were given as single or divided dose treatment regimens to achieve desired pharmacological effects. Roughly 5% of the pharmaceuticals in the FDAMDD data file were antineoplastics and anesthetics and were administered intravenously and/or intramuscularly. When separate MRDDs were reported for different routes of exposure, only the oral MRDD was included in the data file and only MRDD values reported for the average adult patient were used. Pharmaceuticals that are administered orally are usually tested over a limited range of doses and have MRDDs reported as mg/day. The mg/day unit was converted to mg/kg-body weight (bw)/day based upon an average adult weighing 60 kg. In contrast, the dose unit for most antineoplastic drug MRDDs is reported as mg/m2 which was converted to mg/kg-bw/day using the formula mg/kg-bw/day = mg/m2/37 for an average adult. Additionally, a few drugs had MRDDs reported in parts per million (ppm) which were converted to mg/kg-bw/day on the basis that 1000 ppm equals 25 mg/kg-bw/day for an average 60 kg adult. Activity Score is mapping of LOG10(1/Dose_MRDD_mmol) spanning activity range [MIN, MAX] onto Integer 1-100 Activity range, where 100 is highest potency and 1 is lowest potency: ActivityScore = 100 * INTEGER[(LOGINV_MRDD_mmol - MIN)/(MAX […] MIN)]. Activity Outcome is "active" for all substances, since Dose_MRDD_mmol is reported for all substances.

[1] = TherapeuticCategory: antibacterial
[2] = TherapeuticCategory: antihistaminic
[3] = TherapeuticCategory: sedative, hypnotic
[4] = TherapeuticCategory: diagnostic aid
[5] = TherapeuticCategory: anesthetic
[6] = TherapeuticCategory: anthelmintic
[7] = TherapeuticCategory: antispasmodic
[8] = TherapeuticCategory: antioxidant

SMILES: O=C(O)CCCC[C@@H]1SC[C@@H]2NC(=O)N[C@@H]21
- maximum recommended daily dose (mmol/kg-bw/day) (TherapeuticCategory: none): 1.36e-05

SMILES: CO[C@@]1(NC(=O)Cc2cccs2)C(=O)N2C(C(=O)O)=C(COC(N)=O)CS[C@@H]21
- maximum recommended daily dose (mmol/kg-bw/day) [1]: 0.468

SMILES: CC(C)(N)Cc1ccccc1
- maximum recommended daily dose (mmol/kg-bw/day) (TherapeuticCategory: anorexic): 0.00419

SMILES: OC[C@H]1O[C@H](O[C@H]2[C@H](O)[C@@H](O)[C@H](O)O[C@@H]2CO)[C@H](O)[C@@H](O)[C@@H]1O
- maximum recommended daily dose (mmol/kg-bw/day) (TherapeuticCategory: none): 0.292

SMILES: CC(C)COCC(CN(Cc1ccccc1)c1ccccc1)N1CCCC1 (configuration not stated)
- maximum recommended daily dose (mmol/kg-bw/day) (TherapeuticCategory: antianginal): 0.0182

SMILES: Cc1ccc(C(=O)C(C)CN2CCCCC2)cc1 (configuration not stated)
- maximum recommended daily dose (mmol/kg-bw/day) (TherapeuticCategory: skeletal muscle relaxant): 0.0204

SMILES: COc1cc(OC)c(C(=O)CCCN2CCCC2)c(OC)c1
- maximum recommended daily dose (mmol/kg-bw/day) (TherapeuticCategory: peripheral vasodilator): 0.0325

SMILES: CC[C@H](OC(C)=O)C(C[C@H](C)N(C)C)(c1ccccc1)c1ccccc1
- maximum recommended daily dose (mmol/kg-bw/day) (TherapeuticCategory: treatment of narcotic addiction): 0.0113

SMILES: CC(C1=C(CCN(C)C)Cc2ccccc21)c1ccccn1 (configuration not stated)
- maximum recommended daily dose (mmol/kg-bw/day) [2]: 0.000342

SMILES: C=CCC1(CC(C)C)C(=O)NC(=O)NC1=O
- maximum recommended daily dose (mmol/kg-bw/day) [3]: 0.0223

SMILES: CO/N=C(/C(=O)N[C@@H]1C(=O)N2C(C(=O)O)=C(COC(C)=O)CS[C@H]12)c1csc(N)n1
- maximum recommended daily dose (mmol/kg-bw/day) [1]: 0.439

SMILES: O=c1ccc2ccccc2o1
- maximum recommended daily dose (mmol/kg-bw/day) (TherapeuticCategory: pharmaceutic aid): 0.0114

SMILES: O=c1[nH]cc(F)c(=O)[nH]1
- maximum recommended daily dose (mmol/kg-bw/day) (TherapeuticCategory: antineoplastic): 0.0923

SMILES: CC(C)NCC(O)COc1ccc(CC(N)=O)cc1 (configuration not stated)
- maximum recommended daily dose (mmol/kg-bw/day) (TherapeuticCategory: antihypertensive, antianginal, antiarrhythmic): 0.0125

SMILES: CN1CCC(=C2c3ccccc3CCc3sccc32)CC1
- maximum recommended daily dose (mmol/kg-bw/day) (TherapeuticCategory: anabolic, antidepressant, serotonin inhibitor): 0.000169

SMILES: OCc1cccnc1
- maximum recommended daily dose (mmol/kg-bw/day) (TherapeuticCategory: vasodilator): 0.0458

SMILES: CNC[C@H](O)[C@@H](O)[C@H](O)[C@H](O)CO
- maximum recommended daily dose (mmol/kg-bw/day) [4]: 0.512

SMILES: C=C1CC[C@H](O)C/C1=C/C=C1\CCC[C@]2(C)[C@@H]([C@H](C)CCCC(C)(C)O)CC[C@@H]12
- maximum recommended daily dose (mmol/kg-bw/day) (TherapeuticCategory: calcium regulator): 8.31e-06

SMILES: CN=C1CN(O)C(c2ccccc2)=c2cc(Cl)ccc2=N1
- maximum recommended daily dose (mmol/kg-bw/day) (TherapeuticCategory: anxiolytic): 0.00557

SMILES: N=C(N)c1ccc(N=NNc2ccc(C(=N)N)cc2)cc1 (tested in a mixture with another compound)
- maximum recommended daily dose (mmol/kg-bw/day) (TherapeuticCategory: antiprotozoal): 0.0097

SMILES: CC(CN1c2ccccc2Sc2ccc(S(=O)(=O)N(C)C)cc21)N(C)C (configuration not stated)
- maximum recommended daily dose (mmol/kg-bw/day) (TherapeuticCategory: antimigraine): 0.0034

SMILES: C=CCC1(C(C)C#CCC)C(=O)NC(=O)N(C)C1=O (configuration not stated)
- maximum recommended daily dose (mmol/kg-bw/day) [5]: 0.00762

SMILES: CC(Cc1ccc(O)cc1)NCC(O)c1cc(O)cc(O)c1 (configuration not stated)
- maximum recommended daily dose (mmol/kg-bw/day) (TherapeuticCategory: bronchodilator, tocolytic): 8.8e-05

SMILES: CN(C)CCOC1=Cc2ccccc2Sc2ccc(Cl)cc21
- maximum recommended daily dose (mmol/kg-bw/day) (TherapeuticCategory: antipsychotic): 0.0226

SMILES: CC(C)NCC(O)COc1ccc(CCOCC2CC2)cc1 (configuration not stated)
- maximum recommended daily dose (mmol/kg-bw/day) (TherapeuticCategory: antihypertensive, antiglaucomic): 0.00217

SMILES: CN1[C@@H](CC(=O)c2ccccc2)CCC[C@H]1C[C@H](O)c1ccccc1
- maximum recommended daily dose (mmol/kg-bw/day) (TherapeuticCategory: respiratory stimulant): 0.000495

SMILES: CC1NCCOC1c1ccccc1 (configuration not stated)
- maximum recommended daily dose (mmol/kg-bw/day) (TherapeuticCategory: anorexic, CNS stimulant): 0.00705

SMILES: OC(CCCN1CCCCC1)(c1ccccc1)c1ccccc1
- maximum recommended daily dose (mmol/kg-bw/day) (TherapeuticCategory: antiemetic): 0.0162

SMILES: O=C1c2ccccc2C(=O)C1c1ccccc1
- maximum recommended daily dose (mmol/kg-bw/day) (TherapeuticCategory: anticoagulant): 0.015

SMILES: Nc1nc2c(c(=O)[nH]1)N(C=O)C(CNc1ccc(C(=O)NC(CCC(=O)O)C(=O)O)cc1)CN2 (configuration not stated)
- maximum recommended daily dose (mmol/kg-bw/day) (TherapeuticCategory: antidote to folic acid antagonists, antianemic): 0.0114

SMILES: C=CCN1CC[C@]23CCCC[C@H]2[C@H]1Cc1ccc(O)cc13
- maximum recommended daily dose (mmol/kg-bw/day) (TherapeuticCategory: narcotic antagonist): 0.000235

SMILES: CC(=O)O[C@H]1C[C@H](O[C@H]2[C@@H](O)C[C@H](O[C@H]3[C@@H](O)C[C@H](OC4CC[C@@]5(C)C(CC[C@@H]6[C@@H]5C[C@@H](O)[C@]5(C)[C@@H](C7=CC(=O)OC7)[C@@H](O)C[C@]65O)C4)O[C@@H]3C)O[C@@H]2C)O[C@H](C)[C@H]1O[C@@H]1O[C@H](CO)[C@@H](O)[C@H](O)[C@H]1O (some centres not stated)
- maximum recommended daily dose (mmol/kg-bw/day) (TherapeuticCategory: cardiotonic): 3.33e-05

SMILES: CCc1oc2ccccc2c1C(=O)c1cc(Br)c(O)c(Br)c1
- maximum recommended daily dose (mmol/kg-bw/day) (TherapeuticCategory: uricosuric): 0.0118

SMILES: CC(=O)OC[C@H]1O[C@@H](n2ncc(=O)[nH]c2=O)[C@H](OC(C)=O)[C@@H]1OC(C)=O
- maximum recommended daily dose (mmol/kg-bw/day) (TherapeuticCategory: antineoplastic, antipsoriatic): 0.458

SMILES: CN(C)c1ccc2nc3ccc(=[N+](C)C)cc-3sc2c1
- maximum recommended daily dose (mmol/kg-bw/day) (TherapeuticCategory: antimethemoglobinemic): 0.0203

SMILES: CN(C)CCN(Cc1cccs1)c1ccccn1
- maximum recommended daily dose (mmol/kg-bw/day) [2]: 0.0255

SMILES: CCN(CC)Cc1cc(Nc2ccnc3cc(Cl)ccc23)ccc1O
- maximum recommended daily dose (mmol/kg-bw/day) (TherapeuticCategory: antimalarial): 0.00936

SMILES: CC(=O)NCCOC(=O)C(Oc1cccc(C(F)(F)F)c1)c1ccc(Cl)cc1 (configuration not stated)
- maximum recommended daily dose (mmol/kg-bw/day) (TherapeuticCategory: antihyperlipoproteinemic, uricosuric): 0.0402

SMILES: OCC(Br)(Br)Br
- maximum recommended daily dose (mmol/kg-bw/day) [5]: 0.354

SMILES: COC(=O)C1=CCCN(C)C1
- maximum recommended daily dose (mmol/kg-bw/day) [6]: 0.000215

SMILES: Cc1cccc(C)c1NC(=O)c1cc(S(N)(=O)=O)c(Cl)cc1O
- maximum recommended daily dose (mmol/kg-bw/day) (TherapeuticCategory: diuretic, antihypertensive): 0.00188

SMILES: O=C(OC1CC2CCC(C1)[N+]21CCCC1)C(O)(c1ccccc1)c1ccccc1 (configuration not stated)
- maximum recommended daily dose (mmol/kg-bw/day) [7]: 0.000467

SMILES: C=CCC1(C(C)C)C(=O)NC(=O)NC1=O
- maximum recommended daily dose (mmol/kg-bw/day) [3]: 0.0127

SMILES: CNC(=O)Oc1ccc2c(c1)[C@]1(C)CCN(C)[C@@H]1N2C
- maximum recommended daily dose (mmol/kg-bw/day) (TherapeuticCategory: cholinergic, miotic): 6.07e-05

SMILES: CN=C(NC)NCc1ccccc1
- maximum recommended daily dose (mmol/kg-bw/day) (TherapeuticCategory: antihypertensive): 0.0188

SMILES: COc1ccccc1O
- maximum recommended daily dose (mmol/kg-bw/day) (TherapeuticCategory: expectorant): 0.0902

SMILES: CC(=O)N(CC(O)CO)c1c(I)c(C(=O)NCC(O)CO)c(I)c(C(=O)NCC(O)CO)c1I (configuration not stated)
- maximum recommended daily dose (mmol/kg-bw/day) [4]: 0.134

SMILES: CCCN[C@H]1CCc2nc(N)sc2C1
- maximum recommended daily dose (mmol/kg-bw/day) (TherapeuticCategory: antiparkinsonian, dopamine receptor agonist): 0.000473

SMILES: O=P(O)(O)C(O)(Cc1cccnc1)P(=O)(O)O
- maximum recommended daily dose (mmol/kg-bw/day) (TherapeuticCategory: antiosteoporotic, Ca regulator, Ca channel blocker): 0.000294

SMILES: Nc1[nH]c(=O)ncc1F
- maximum recommended daily dose (mmol/kg-bw/day) (TherapeuticCategory: antifungal): 1.16

SMILES: CN(C)CCC(c1ccc(Cl)cc1)c1ccccn1 (configuration not stated)
- maximum recommended daily dose (mmol/kg-bw/day) [2]: 0.000484

SMILES: CN(C)CCCN1c2ccccc2C(C)(C)c2ccccc21
- maximum recommended daily dose (mmol/kg-bw/day) (TherapeuticCategory: antidepressant): 0.034

SMILES: CC(=O)Nc1ccc(O)cc1
- maximum recommended daily dose (mmol/kg-bw/day) (TherapeuticCategory: analgesic, antipyretic): 0.331

SMILES: CC(C)(C)c1cc(O)ccc1O
- maximum recommended daily dose (mmol/kg-bw/day) [8]: 0.0012

SMILES: O=c1[nH]c(=O)n([C@H]2C[C@H](O)[C@@H](CO)O2)cc1F
- maximum recommended daily dose (mmol/kg-bw/day) (TherapeuticCategory: antiviral, antineoplastic): 0.00244

SMILES: CC1=C(/C=C/C(C)=C/C=C/C(C)=C/C=C/C=C(C)/C=C/C=C(C)/C=C/C2=C(C)C(=O)CCC2(C)C)C(C)(C)CCC1=O
- maximum recommended daily dose (mmol/kg-bw/day) [8]: 0.0443

SMILES: CCN(CCCCOC(=O)c1ccc(OC)c(OC)c1)C(C)Cc1ccc(OC)cc1 (configuration not stated)
- maximum recommended daily dose (mmol/kg-bw/day) [7]: 0.0157

SMILES: O=C(O)c1cc(=O)c2c(OCC(O)COc3cccc4oc(C(=O)O)cc(=O)c34)cccc2o1
- maximum recommended daily dose (mmol/kg-bw/day) (TherapeuticCategory: prophylactic antiasthmatic, antiallergic): 0.0284

SMILES: CC(C)(C#N)c1cc(Cn2cncn2)cc(C(C)(C)C#N)c1
- maximum recommended daily dose (mmol/kg-bw/day) (TherapeuticCategory: androgen): 5.69e-05

SMILES: C[N+](C)(CCOc1ccccc1)Cc1ccccc1
- maximum recommended daily dose (mmol/kg-bw/day) [6]: 0.163 and 0.094

SMILES: CN(C)CCOc1ccc(/C(=C(/CCCl)c2ccccc2)c2ccccc2)cc1
- maximum recommended daily dose (mmol/kg-bw/day) (TherapeuticCategory: antiestrogen, antineoplastic): 0.0082

SMILES: CCCCC(=O)O[C@H]1CC[C@H]2[C@@H]3CCc4cc(O)ccc4[C@H]3CC[C@]12C
- maximum recommended daily dose (mmol/kg-bw/day) (TherapeuticCategory: estrogen): 0.0014
